Test results reported in ChEMBL document CHEMBL3885881, “DrugMatrix”.

Species: Rattus norvegicus
Assay: DrugMatrix - Regimen: Daily Repeat
Format: toxicity, organism-based, Sprague-Dawley
Parameters: regimen Daily Repeat, gender Male, age 6-8 weeks
Conditions: in vivo, po, route oral GAVAGE, vehicle 100 % WATER; for ABSOLUTE BASOPHIL / ABSOLUTE EOSINOPHIL / ABSOLUTE LYMPHOCYTE / ABSOLUTE MONOCYTE / ABSOLUTE SEGMENTED NEUTROPHIL / BASOPHIL / EOSINOPHIL / ERYTHROCYTE COUNT / HEMATOCRIT / HEMOGLOBIN / LEUKOCYTE COUNT / LYMPHOCYTE / MEAN CORPUSCULAR HEMOGLOBIN / MEAN CORPUSCULAR HEMOGLOBIN CONCENTRATION / MEAN CORPUSCULAR VOLUME / MONOCYTE / NEUTROPHIL / NUCLEATED RED BLOOD CELLS / PLATELET COUNT: tissue Blood; for ALANINE AMINOTRANSFERASE / ALKALINE PHOSPHATASE / ASPARTATE AMINOTRANSFERASE / BLOOD UREA NITROGEN / CARBON DIOXIDE / CHLORIDE / CHOLESTEROL / CREATINE PHOSPHOKINASE / CREATININE / GLUCOSE / LACTATE DEHYDROGENASE / LIPASE / PHOSPHORUS / POTASSIUM / SODIUM / TOTAL BILIRUBIN / TOTAL PROTEIN / URIC ACID: tissue Plasma
[1] = 0 mg/kg, 72 h, dose level Control, time 3 day
[2] = 0 mg/kg, 120 h, dose level Control, time 5 day
[3] = 22 mg/kg, 72 h, dose level Low, time 3 day

## COc1ccc(C(CN(C)C)C2(O)CCCCC2)cc1 (stereo unspecified) [VENLAFAXINE]
[1]
  ABSOLUTE BASOPHIL: 0 CELLS/uL
  ABSOLUTE EOSINOPHIL: 102 CELLS/uL
  ABSOLUTE LYMPHOCYTE: 12758 CELLS/uL
  ABSOLUTE MONOCYTE: 197.17 CELLS/uL
  ABSOLUTE SEGMENTED NEUTROPHIL: 1259.5 CELLS/uL
  BASOPHIL: 0%
  EOSINOPHIL: 0.83%
  ERYTHROCYTE COUNT: 5.3 x10E6/uL
  HEMATOCRIT: 33.47%
  HEMOGLOBIN: 13.12 G/DL
  LEUKOCYTE COUNT: 14.32 x10E3/uL
  LYMPHOCYTE: 89.33%
  MEAN CORPUSCULAR HEMOGLOBIN: 24.8 pg
  MEAN CORPUSCULAR HEMOGLOBIN CONCENTRATION: 39.18 G/DL
  MEAN CORPUSCULAR VOLUME: 63.25 fL
  MONOCYTE: 1.33%
  NEUTROPHIL: 8.5%
  NUCLEATED RED BLOOD CELLS: 0 /100WBC
  PLATELET COUNT: 1313.17 x10E3/uL
  ALANINE AMINOTRANSFERASE: 52.67 u/L
  ALKALINE PHOSPHATASE: 372 u/L
  ASPARTATE AMINOTRANSFERASE: 82.83 u/L
  BLOOD UREA NITROGEN: 15 mg/dL
  CARBON DIOXIDE: 25.67 mmol/L
  CHLORIDE: 102.17 MEQ/L
  CHOLESTEROL: 68.83 mg/dL
  CREATINE PHOSPHOKINASE: 285 u/L
  CREATININE: 0.18 mg/dL
  GLUCOSE: 149.17 mg/dL
  LACTATE DEHYDROGENASE: 263.83 u/L
  LIPASE: 10.17 u/L
  PHOSPHORUS: 12.58 mg/dL
  POTASSIUM: 6.58 MEQ/L
  SODIUM: 144.22 MEQ/L
  TOTAL BILIRUBIN: 0.22 mg/dL
  TOTAL PROTEIN: 5.83 G/DL
  URIC ACID: 1.58 mg/dL
[2]
  ABSOLUTE BASOPHIL: 0 CELLS/uL
  ABSOLUTE EOSINOPHIL: 24 CELLS/uL
  ABSOLUTE LYMPHOCYTE: 11134.17 CELLS/uL
  ABSOLUTE MONOCYTE: 56.33 CELLS/uL
  ABSOLUTE SEGMENTED NEUTROPHIL: 1235.5 CELLS/uL
  BASOPHIL: 0%
  EOSINOPHIL: 0.17%
  ERYTHROCYTE COUNT: 5.68 x10E6/uL
  HEMATOCRIT: 35.72%
  HEMOGLOBIN: 13.93 G/DL
  LEUKOCYTE COUNT: 12.45 x10E3/uL
  LYMPHOCYTE: 89.5%
  MEAN CORPUSCULAR HEMOGLOBIN: 24.63 pg
  MEAN CORPUSCULAR HEMOGLOBIN CONCENTRATION: 39.13 G/DL
  MEAN CORPUSCULAR VOLUME: 62.97 fL
  MONOCYTE: 0.5%
  NEUTROPHIL: 9.83%
  NUCLEATED RED BLOOD CELLS: 0 /100WBC
  PLATELET COUNT: 1204 x10E3/uL
  ALANINE AMINOTRANSFERASE: 59.5 u/L
  ALKALINE PHOSPHATASE: 415.67 u/L
  ASPARTATE AMINOTRANSFERASE: 91.33 u/L
  BLOOD UREA NITROGEN: 17 mg/dL
  CARBON DIOXIDE: 26.33 mmol/L
  CHLORIDE: 104.17 MEQ/L
  CHOLESTEROL: 77 mg/dL
  CREATINE PHOSPHOKINASE: 249.67 u/L
  CREATININE: 0.21 mg/dL
  GLUCOSE: 148.33 mg/dL
  LACTATE DEHYDROGENASE: 168.5 u/L
  LIPASE: 10.17 u/L
  PHOSPHORUS: 12.92 mg/dL
  POTASSIUM: 7.09 MEQ/L
  SODIUM: 148.37 MEQ/L
  TOTAL BILIRUBIN: 0.23 mg/dL
  TOTAL PROTEIN: 6.3 G/DL
  URIC ACID: 1.77 mg/dL
[3]
  ABSOLUTE BASOPHIL: 0 CELLS/uL
  ABSOLUTE EOSINOPHIL: 59.67 CELLS/uL
  ABSOLUTE LYMPHOCYTE: 13145.33 CELLS/uL
  ABSOLUTE MONOCYTE: 145.33 CELLS/uL
  ABSOLUTE SEGMENTED NEUTROPHIL: 1183 CELLS/uL
  BASOPHIL: 0%
  EOSINOPHIL: 0.33%
  ERYTHROCYTE COUNT: 5.58 x10E6/uL
  HEMATOCRIT: 35.93%
  HEMOGLOBIN: 14.03 G/DL
  LEUKOCYTE COUNT: 14.53 x10E3/uL
  LYMPHOCYTE: 90.67%
  MEAN CORPUSCULAR HEMOGLOBIN: 25.13 pg
  MEAN CORPUSCULAR HEMOGLOBIN CONCENTRATION: 39.1 G/DL
  MEAN CORPUSCULAR VOLUME: 64.33 fL
  MONOCYTE: 1%
  NEUTROPHIL: 8%
  NUCLEATED RED BLOOD CELLS: 0 /100WBC
  PLATELET COUNT: 1219 x10E3/uL
  ALANINE AMINOTRANSFERASE: 59.67 u/L
  ALKALINE PHOSPHATASE: 338 u/L
  ASPARTATE AMINOTRANSFERASE: 94.33 u/L
  BLOOD UREA NITROGEN: 15.67 mg/dL
  CARBON DIOXIDE: 24.33 mmol/L
  CHLORIDE: 103.67 MEQ/L
  CHOLESTEROL: 73.67 mg/dL
  CREATINE PHOSPHOKINASE: 320.67 u/L
  CREATININE: 0.17 mg/dL
  GLUCOSE: 162 mg/dL
  LACTATE DEHYDROGENASE: 412.33 u/L
  LIPASE: 11.33 u/L
  PHOSPHORUS: 13.2 mg/dL
  POTASSIUM: 6.69 MEQ/L
  SODIUM: 146.03 MEQ/L
  TOTAL BILIRUBIN: 0.13 mg/dL
  TOTAL PROTEIN: 6.2 G/DL
  URIC ACID: 2.33 mg/dL
